Paper PMC9822133, “Design, Synthesis and Antiproliferative Evaluation of Bis-Indole Derivatives with a Phenyl Linker: Focus on Autophagy” (Molecules, 2022)

Assays:
[1] = test system: Caco-2; assay: MTT screening assay, Caco-2; type: cell-based; settings: Homo sapiens, 72 h incubation
Source text: (§1) The ability of newly synthesized indole phytoalexins to suppress cell proliferation was screened in vitro on eight cancer cell lines including human colorectal carcinoma (Caco-2 and HCT116), human cervical cancer (HeLa), human breast adenocarcinoma (MCF-7, MDA-MB-231), human alveolar adenocarcinoma (A549) and human leukemic T cell lymphoma (Jurkat), and two non-cancer cell lines (MCF-10A, Cos-7).
(§2) The cell lines used for this study were Caco-2 (human colorectal adenocarcinoma cell line, American Type Culture Collection, Manassas, VA, USA (ATCC)), HCT116 (human colorectal carcinoma cells European Collection of Authenticated Cell Cultures, Salisbury, UK (ECACC)), HeLa (human cervical tumor cells, ECACC), MCF-7 (human breast tumor cells, ECACC), MDA-MB-231 (human breast tumor cells, ATCC), A549 (human lung carcinoma cells, ATCC), BLM (human melanoma lung metastases, a gift from prof. K. Smetana, Institute of Anatomy, Charles University in Prague), Jurkat (human leukemia cell line, ECACC), Cos-7 (immortalized monkey kidney fibroblasts, ATCC) and MCF-10A (human mammary epithelial cells, ATCC). Caco-2, MCF-7, BLM, Cos-7 and A549 cells were cultured in Dulbecco’s Modified Eagle’s Medium (DMEM) with high glucose and sodium pyruvate (GE Healthcare, Piscataway, NJ, USA); HCT116 lines, HeLa, MDA-MB-231 and Jurkat were cultured in RPMI-1640 medium; and MCF10A cells were cultured in high glucose DMEM/F12 (Dulbecco’s Modified Eagle’s Medium F12). The media were enriched with 10% fetal bovine serum (FBS) and a 1% solution of a mixture of antibiotics and antimycotics 1× HyClone™ (GE Healthcare, Chicago, IL, USA). DMEM/F12 medium was supplemented with epidermal growth factor (EGF) (20 ng/mL final), hydrocortisone (0.5 μg/mL final) and insulin (10 μg/mL final) (Sigma-Aldrich Chemie, Steinheim, Germany). The cells were placed in an incubator at 37 °C with humidified air containing 5% CO2.
(§3) The MTT assay is a colorimetric method used to quantify the metabolic activity of cells. MTT (3-(4,5-di-methylthiazol-2-yl)2,5-diphenyltetrazolium bromide) (Sigma-Aldrich Chemie, Steinheim, Germany) is reduced by oxidoreductases in the cytosol of cells to light-absorbing formazan, the presence of which can be measured spectrophotometrically and determines the half-maximal inhibitory concentration (IC50). A549 cells were seeded in […] culture plates at a density of 5 × 10^3 per well. […]
(§4) We also incubated the cells with chloroquine at concentrations of 5–20 µM, which was added 1 h before the addition of the test substance, and cisplatin at concentrations of 3–10 µM. […] After 24 h, the absorbance was measured at a wavelength of 540 nm using an automated Cytation™ 3 Cell Imaging Multi-Mode Reader (Biotek, Winooski, VT, USA). […]

[2] = test system: HeLa; assay: MTT screening assay, HeLa; type: cell-based; settings: Homo sapiens, 72 h incubation
Source text: as §1, §2, §3, §4

[3] = test system: Beclin-1; assay: Western blot, Beclin-1; type: cell-based, human; settings: A549, all time periods, most significantly after 24 h
Source text: Beclin-1 plays a key role in the autophagy process, which is activated in cells during periods of stress. It ensures the recruitment of autophagosomal proteins to the pre-autophagosomal structure (PAS) and is part of a complex that is essential for the induction of autophagy (VSP34 complex). It also interacts with proteins from the Bcl-2 family, by which it can be inactivated or cleaved by caspases. This is considered a crosstalk between autophagy and apoptosis. […] There is no mention in the literature focusing on Beclin-1 (and even autophagy) and indole phytoalexins. However, another phytoalexin, resveratrol, has been described to stimulate autophagy in oral cancer cells. […] Later, Fan et al. confirmed the ability of resveratrol to induce autophagy associated with upregulation of Beclin-1 also in lung cancer A549 cells.
A549 cells were seeded on Petri dishes (55 cm^2) at a density of 1 × 10^6 and allowed to culture in the medium. After 24 h, the test substance was added, and the cells were incubated for 24, 48 and 72 h. […] After lysis, the cells were sonicated, and the protein concentration in the samples was quantified using the Pierce® BCA Protein Assay Kit (Thermo Scientific, Rockford, IL, USA) and measured by an automated Cytation™ 3 Cell Imaging Multi-Mode Reader (Biotek) at a wavelength of 570 nm. […]

CC(C)(C)OC(=O)n1cc(CNC(=O)Nc2ccc(NC(=O)NCc3cn(C(=O)OC(C)(C)C)c4ccccc34)cc2)c2ccccc21 [Compound 49, N,N′-(1,4-phenylene)bis{N′-[1-(tert-butoxycarbonyl)indol-3-yl]methyl (urea)}]
IC50 [1]: 8.6 ± 0.9 µM | IC50 [2]: 8.9 ± 0.2 µM | Beclin-1 expression [3]: significantly upregulated
